Results: paper PMC11892739, “Site-specific molecular glues for the 14-3-3/Tau pS214 protein–protein interaction via reversible covalent imine tethering” (RSC Medicinal Chemistry, 2025)

Target: T1, 14-3-3γ/Tau pS324 complex (Homo sapiens, UniProt P61981)
T1 construct: made in house; host or cells: NiCo21 (DE3) E. coli
Test: Differential scanning fluorimetry of 14-3-3γ with Tau pS324 peptide and compounds
Type: binding
Details: compound 30 equiv., Tau pS324 10 equiv.
Method: Fig. 5 a Phospho-site selective 14-3-3/Tau PPI stabilization. b SF250μM of selected compounds for stabilization of the 14-3-3γ complex with Tau pS214 and Tau pS324 peptides based on the internal DMSO reference. Mean of two separately performed experiments (see ESI ^† Fig. S9 for the corresponding binding curves). c Differential scanning fluorimetry assay results. Identified melting temperatures (Tm) of 14-3-3γ in the presence of the Tau pS214 or pS324 peptide and compounds 1 and 18. […]
chromatography (HisTrap high performance cartridges, Cytiva). […] Dialyzed protein was concentrated to ∼40 mg/mL, analyzed by Q -Tof LC/MS, and aliquots were flash -frozen for storage at −80 °C. […]
DSF was performed using 40 µl samples containing 2.5 µM 14 -3-3ζ, 25 µM Tau peptide (Tau pS2, Tau pS214 or Tau pS324), […] (1% DMSO) and 5x ProteoOrange (Lumiprobe, 5000x stock in DMSO) in 10 mM HEPES, 150 mM NaCl, 50 µM TCEP (pH 7.4). […] Fluorescence intensity was determined using excitation ( λem=525/20 nm) and emission ( λex=570/20 nm) filters.
Based on these melting curves, the negative derivative melting curve is obtained from which the melting temperature Tm was determined. All described melting temperatures are based on two or three independent experiments, from which the average and standard deviations were determined. […]

T1 sequence (P61981 whole entry, other chains not shown): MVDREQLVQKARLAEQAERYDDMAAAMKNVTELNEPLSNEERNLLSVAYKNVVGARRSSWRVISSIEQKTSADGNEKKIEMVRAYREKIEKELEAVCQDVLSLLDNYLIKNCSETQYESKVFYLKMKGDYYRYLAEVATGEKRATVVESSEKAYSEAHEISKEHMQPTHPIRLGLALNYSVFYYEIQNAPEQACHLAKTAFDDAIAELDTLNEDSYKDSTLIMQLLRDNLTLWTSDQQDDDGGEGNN

SMILES	increase in 14-3-3γ melting temperature on addition of compound, Tau pS324 complex
O=Cc1ccc(-n2ccnc2-c2ccccc2)cc1Br [Compound 1]	~0.6 °C
CCc1ccc(-c2nccn2-c2ccc(C=O)c(Br)c2)cc1 [Compound 18]	~0.2 °C
